Data published in patent US8859620B2, “Phthalanilate compounds and methods of use” (University of Notre Dame du Lac, priority 2009, dated 2014).
Converted amounts (≈) assume the structure as drawn.

What was measured:
[1] = target: TEM-1 (class A β-lactamase) (Escherichia coli, UniProt P62593); assay: β-Lactamase assay (nitrocefin colour change), TEM-1; format: biochemical; details: for TEM-1: Table 10, class symbols x/xx/xxx, key not given
Method: (§1) β-Lactamase Assays (TEM-1, P99, and OXA-10): The activity of the compounds of the invention (inhibitors) toward β-lactamases was evaluated using 96 well plates. The reaction mixture included 10 mM sodium phosphate, pH 7.0, 150 mM sodium chloride, 0.01% Triton X-100, 100 μM nitrocefin, 10 nM of β-lactamases (class A: TEM-1; class C: P99, or class D: OXA-10), and variable concentrations of the inhibitors in a total volume of 100 μL. β-Lactamases were pre-incubated with the compounds at room temperature for 5 minutes, and the assay was initiated by the addition of nitrocefin. The inhibition of the enzyme activity by the compounds was determined by monitoring color change (from yellow to red) of nitrocefin after 20 minutes. Stock solutions of the compounds were prepared in dimethyl sulfoxide (DMSO). No more than 5% DMSO was present in assays, unless noted otherwise. B1aR Assay: The surface domain of B1aR (1 μM) was added to each inhibitor (at various concentrations) in 100 mM sodium phosphate, 50 mM sodium bicarbonate, at pH 7.0. The reaction mixtures were incubated at room temperature for 20 minutes. BOCILLIN FL, a fluorogenic ligand, was added to a concentration of 20 μM in a final volume of 20 μL. The mixtures were incubated at 37° C. for 5 minutes, at which point the reactions were quenched by the addition of 15 μL of the SDS sample buffer (125 mM Tris, 4% SDS, 20% glycerol, 2% 2-mercaptoethanol, pH 6.8), and were boiled for 4 minutes. The samples were loaded onto 15% SDS-PAGE, the gel was developed and scanned using a Storm 840® Fluorimager. The fluorescent bands of BOCILLIN FL-labeled B1aR^S were analyzed by Image Quant 5.2 software. PBP2 Assay: The PBP2 assay was performed according to the methods of Villegas-Esterada et al. (J. Am. Chem. Soc. 2008, 130, 9212-9213).

[2] = target: P99 (class C β-lactamase) (Enterobacter cloacae, UniProt P05364); assay: β-Lactamase assay (nitrocefin colour change), P99; format: biochemical; details: for P99: Table 10, class symbols x/xx/xxx, key not given; for IC50: nitrocefin 100 μM, 10 nM enzyme, 5 min pre-incubation, read-out: IC50s P99
Chain of P99 (class C β-lactamase) (P05364 21-381): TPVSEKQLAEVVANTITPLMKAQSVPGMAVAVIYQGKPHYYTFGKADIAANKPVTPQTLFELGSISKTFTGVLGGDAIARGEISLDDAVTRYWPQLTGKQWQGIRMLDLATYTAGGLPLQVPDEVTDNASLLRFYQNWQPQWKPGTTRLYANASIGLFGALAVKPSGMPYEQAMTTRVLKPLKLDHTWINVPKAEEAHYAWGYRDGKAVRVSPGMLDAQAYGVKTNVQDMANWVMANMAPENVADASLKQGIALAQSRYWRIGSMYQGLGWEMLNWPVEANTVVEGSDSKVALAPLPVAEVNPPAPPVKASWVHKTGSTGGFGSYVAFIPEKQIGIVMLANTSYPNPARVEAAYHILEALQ
Method: as §1

[3] = target: OXA-10 (class D β-lactamase) (Pseudomonas aeruginosa, UniProt P14489); assay: β-Lactamase assay (nitrocefin colour change), OXA-10; format: biochemical; details: for OXA-10: Table 10, class symbols x/xx/xxx, key not given; for IC50: nitrocefin 100 μM, 10 nM enzyme, 5 min pre-incubation, read-out: IC50s OXA-10
Chain of OXA-10 (class D β-lactamase) (P14489 20-266, species assumed): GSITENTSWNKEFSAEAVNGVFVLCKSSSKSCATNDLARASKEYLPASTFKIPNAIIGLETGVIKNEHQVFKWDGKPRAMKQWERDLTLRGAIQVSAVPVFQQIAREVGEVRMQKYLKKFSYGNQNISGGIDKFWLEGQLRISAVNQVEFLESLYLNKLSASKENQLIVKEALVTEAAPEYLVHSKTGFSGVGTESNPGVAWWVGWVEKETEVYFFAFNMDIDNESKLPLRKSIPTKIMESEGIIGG
Method: as §1

surface domain of B1aR = surface domain of B1aR (Staphylococcus aureus, UniProt P18357); assay: B1aR assay (BOCILLIN FL labeling, SDS-PAGE); format: binding, Staphylococcus aureus (MRSA); details: Table 10; class symbols x/xx/xxx, key not given
Chain of surface domain of B1aR (P18357 331-585): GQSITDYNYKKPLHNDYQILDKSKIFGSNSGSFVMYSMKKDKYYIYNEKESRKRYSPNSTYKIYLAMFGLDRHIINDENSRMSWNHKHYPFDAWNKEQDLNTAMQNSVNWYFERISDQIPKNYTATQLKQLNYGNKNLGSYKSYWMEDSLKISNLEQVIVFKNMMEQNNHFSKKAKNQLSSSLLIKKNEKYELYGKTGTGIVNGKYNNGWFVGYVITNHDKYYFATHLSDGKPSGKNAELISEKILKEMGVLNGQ
Method: as §1

PBP2a = PBP2a (Staphylococcus aureus, UniProt P07944); assay: PBP2 assay (Villegas-Esterada et al.); format: biochemical; details: Table 10
Chain of PBP2a (P07944 whole entry): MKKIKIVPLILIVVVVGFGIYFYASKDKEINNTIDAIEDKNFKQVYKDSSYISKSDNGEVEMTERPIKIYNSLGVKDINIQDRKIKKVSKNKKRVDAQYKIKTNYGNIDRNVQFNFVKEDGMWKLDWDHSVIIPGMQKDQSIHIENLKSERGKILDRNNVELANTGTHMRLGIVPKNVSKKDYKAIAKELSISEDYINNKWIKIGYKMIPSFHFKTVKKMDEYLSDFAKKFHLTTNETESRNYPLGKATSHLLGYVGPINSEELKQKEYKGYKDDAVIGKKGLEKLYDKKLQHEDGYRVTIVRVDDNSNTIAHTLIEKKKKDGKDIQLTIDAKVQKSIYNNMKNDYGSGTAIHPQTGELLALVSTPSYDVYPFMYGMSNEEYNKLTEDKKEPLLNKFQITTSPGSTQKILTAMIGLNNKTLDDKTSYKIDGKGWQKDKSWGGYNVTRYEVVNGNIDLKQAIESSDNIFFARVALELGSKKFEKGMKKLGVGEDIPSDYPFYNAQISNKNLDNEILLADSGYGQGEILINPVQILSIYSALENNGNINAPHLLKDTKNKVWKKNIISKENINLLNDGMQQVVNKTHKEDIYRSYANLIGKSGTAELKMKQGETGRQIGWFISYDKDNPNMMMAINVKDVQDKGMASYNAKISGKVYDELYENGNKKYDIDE
Method: as §1

S. aureus NRS100 (Mec^R) = assay: MIC against S. aureus NRS100 (Table 14); format: cell-based, Staphylococcus aureus; details: for MIC: Staphylococcus aureus, compounds dissolved in DMSO or 1% sodium carbonate, read-out: MIC; for inhibitory activity (in words): Table 14
Method: The recited compounds were dissolved in DMSO or in 1% sodium carbonate and transferred into micro titer plate to final concentration of 1000 μg/mL.

[4] = tested on: methicillin-resistant strains of S. aureus; assay: MIC against methicillin-resistant S. aureus (Table 15); format: cell-based; details: Staphylococcus aureus, dissolved in 100% DMSO, diluted into Mueller Hinton II Broth to final 16 μg/mL
Source text: Table 15 illustrates the inhibition of methicillin-resistant strains of S. aureus by selected compounds of the invention.

S. aureus NRS11 (Mec^S) = assay: MIC against S. aureus NRS11 (Table 13); format: cell-based, Staphylococcus aureus; details: for MIC: Staphylococcus aureus, compounds dissolved in DMSO or 1% sodium carbonate, read-out: MIC; for inhibitory properties (in words): Table 13
Method: All recited compounds were dissolved in DMSO or in 1% sodium carbonate and transferred to micro titer plates to final concentrations of 1000 μg/mL.

Chain of TEM-1 (class A β-lactamase) (P62593 24-286 limits assumed): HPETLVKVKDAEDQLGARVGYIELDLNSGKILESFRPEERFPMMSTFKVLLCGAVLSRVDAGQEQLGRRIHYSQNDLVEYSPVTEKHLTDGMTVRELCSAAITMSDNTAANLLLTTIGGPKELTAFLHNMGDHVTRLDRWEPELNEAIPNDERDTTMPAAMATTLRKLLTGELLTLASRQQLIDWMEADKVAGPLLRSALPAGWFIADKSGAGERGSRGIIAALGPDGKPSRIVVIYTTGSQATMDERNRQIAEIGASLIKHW

Structure (SMILES)	IC50 [1]	TEM-1 [1]	P99 [2]	IC50 [2]	OXA-10 [3]	IC50 [3]	BlaR (surface domain of B1aR)	PBP2a* (inhibitory concentration) (PBP2a)	MIC (S. aureus NRS100 (Mec^R))	MIC [4]	MIC (S. aureus NRS11 (Mec^S))	inhibitory activity (in words) (S. aureus NRS100 (Mec^R))	inhibitory properties (in words) (S. aureus NRS11 (Mec^S))
Cc1ccccc1COc1ccc(NC(=O)c2c(Br)c(Br)c(Br)c(Br)c2C(=O)O)cc1Cl [Compound 386]	7.4 ± 1.2 µM	xxx	xxx	15.3 ± 1.6 µM	xxx	31.6 ± 3.5 µM	xxx	xxx	8 µg/mL (≈ 11.2 µM)	16 µg/mL (≈ 22.5 µM)			
O=C(O)c1c(F)c(F)c(F)c(F)c1C(=O)Nc1ccc(Oc2cc(C(F)(F)F)cc(C(F)(F)F)c2)cc1 [Compound 412]							xx						
CCCCCCCCOc1ccc(NC(=O)c2ccccc2C(=O)O)cc1 [Compound 270]		xxx	xxx		xxx		xx						
O=C(O)c1c(Cl)c(Cl)c(Cl)c(Cl)c1C(=O)Nc1ccc(Oc2cc(C(F)(F)F)cc(C(F)(F)F)c2)cc1 [Compound 413]	27 ± 2.9 µM	xxx	xxx	31.2 ± 6.4 µM	xxx	80.8 ± 7 µM		xxx	8 µg/mL (≈ 13.2 µM)	16 µg/mL (≈ 26.4 µM)			
O=C(O)c1ccccc1C(=O)Nc1ccc(OCc2cccc(C(F)(F)F)c2)c(Cl)c1 [Compound 387]							xx						
CCCCCCCCOc1ccc(NC(=O)c2ccccc2C(=O)O)cc1Cl [Compound 300]	0.7 ± 0.08 µM	xxx	xx	10.3 ± 0.4 µM	xx	30.7 ± 2.8 µM		xxx	8 µg/mL (≈ 19.8 µM)	16 µg/mL (≈ 39.6 µM)			
O=C(O)c1c(Br)c(Br)c(Br)c(Br)c1C(=O)Nc1ccc(OCc2cccc(C(F)(F)F)c2)c(Cl)c1 [Compound 390]	1.9 ± 0.1 µM	xxx	xxx	6 ± 0.8 µM	xxx	14.2 ± 1.1 µM		xxx	< 8 µg/mL	8 µg/mL (≈ 10.5 µM)	< 8 µg/mL	significant inhibitory activity	
CCCCCCCCCCOc1ccc(N(C)C(=O)c2ccccc2C(=O)O)cc1 [Compound 318]							xxx						
O=C(O)C1=C(C(=O)N[C@@H](CO)[C@@H](O)c2ccccc2)SCCS1 [Compound 127]								xx					
CCCCCCCCOc1ccc(NC(=O)c2c(Br)c(Br)c(Br)c(Br)c2C(=O)O)cn1 [Compound 346]	2.8 ± 0.3 µM	xxx	xxx	7.8 ± 1.2 µM	xxx	13.1 ± 0.8 µM			< 8 µg/mL	8 µg/mL (≈ 11.7 µM)	< 8 µg/mL	significant inhibitory activity	significant inhibitory properties
CCCCCCCCOc1ccc(NC(=O)c2c(F)c(F)c(F)c(F)c2C(=O)O)cc1 [Compound 271]		xxx	xxx		xxx		xxx						
Cc1ccccc1COc1ccc(NC(=O)c2c(Cl)c(Cl)c(Cl)c(Cl)c2C(=O)O)cc1Cl [Compound 385]		xx	xx		xxx			xxx	16 µg/mL (≈ 30 µM)		16 µg/mL (≈ 30 µM)	significant inhibitory activity	significant inhibitory properties
O=C(O)c1ccccc1C(=O)Nc1ccc(OCc2cccc(OC(F)(F)F)c2)c(Cl)c1 [Compound 417]							xx		250 µg/mL (≈ 537 µM)				
CCCCCCCCOc1ccc(NC(=O)c2c(Cl)c(Cl)c(Cl)c(Cl)c2C(=O)O)cc1Cl [Compound 302]									4 µg/mL (≈ 7.38 µM)	4 µg/mL (≈ 7.38 µM)			
O=C(O)c1c(Cl)c(Cl)c(Cl)c(Cl)c1C(=O)Nc1ccc(OCc2cccc(OC(F)(F)F)c2)c(Cl)c1 [Compound 419]	2.3 ± 0.1 µM	xxx	xx	13 ± 2 µM	xxx	10.8 ± 0.7 µM	xxx	xxx	8 µg/mL (≈ 13.3 µM)	8 µg/mL (≈ 13.3 µM)			
CCCCCCCCCCOc1ccc(N(C)C(=O)c2c(F)c(F)c(F)c(F)c2C(=O)O)cc1 [Compound 319]							xxx						
CCC(CO)NC(=O)C1=C(C(=O)O)SCCS1 (stereo not drawn) [Compound 126]								xx					
O=C(O)c1c(F)c(F)c(F)c(F)c1C(=O)Nc1ccc(OCc2cccc(OC(F)(F)F)c2)c(Cl)c1 [Compound 418]					xx		xxx		125 µg/mL (≈ 232 µM)				
CCCCCCCCCCOc1ccc(NC(=O)c2c(Br)c(Br)c(Br)c(Br)c2C(=O)O)cc1 [Compound 329]							xxx						
O=C(O)c1ccc([N+](=O)[O-])cc1C(=O)Nc1ccc(OCc2cccc(OC(F)(F)F)c2)c(Cl)c1 [Compound 422]		xx	xx		xx		xxx	xxx	125 µg/mL (≈ 245 µM)				
CCCCCCCCCCCCCCCCOc1ccc(NC(=O)c2c(F)c(F)c(F)c(F)c2C(=O)O)cc1 [Compound 289]	23.1 ± 2.4 µM		xx	1.2 ± 0.1 µM	xxx	0.7 ± 0.15 µM	xxx						
CCCCCCCCOc1ccc(NC(=O)c2c(F)c(F)c(F)c(F)c2C(=O)O)cc1Cl [Compound 301]	5.1 ± 1 µM	xx	xxx	9.9 ± 1.7 µM	xxx	23 ± 2 µM	xxx	xxx	16 µg/mL (≈ 33.6 µM)				
CCCCCCCCOc1ccc(NC(=O)c2c(Cl)c(Cl)c(Cl)c(Cl)c2C(=O)O)cn1 [Compound 345]	4.9 ± 0.2 µM	xxx	xxx	27.8 ± 2.9 µM	xxx	37.9 ± 6 µM			16 µg/mL (≈ 31.5 µM)	16 µg/mL (≈ 31.5 µM)	16 µg/mL (≈ 31.5 µM)	significant inhibitory activity	significant inhibitory properties
CCCCCCCCCCCCCCCCOc1ccc(NC(=O)c2c(Br)c(Br)c(Br)c(Br)c2C(=O)O)cc1 [Compound 291]	0.2 ± 0.04 µM	xxx	xxx	0.2 ± 0.02 µM	xxx	0.3 ± 0.06 µM	xx						
CCCCCCCCOc1ccc(NC(=O)c2c(Br)c(Br)c(Br)c(Br)c2C(=O)O)cc1Cl [Compound 303]							xx		4 µg/mL (≈ 5.56 µM)	4 µg/mL (≈ 5.56 µM)			
O=C(O)c1c(Br)c(Br)c(Br)c(Br)c1C(=O)Nc1ccc(Oc2ccccc2)cc1 [Compound 222]								xx					
CCCCCCCCCCOc1ccc(N(C)C(=O)c2c(Br)c(Br)c(Br)c(Br)c2C(=O)O)cc1 [Compound 316]							xx						
CC(Oc1ccc(NC(=O)c2c(Br)c(Br)c(Br)c(Br)c2C(=O)O)cc1Cl)c1ccccc1 (stereo not drawn) [Compound 382]	5.3 ± 1.1 µM	xxx	xxx	24.4 ± 1.9 µM	xxx	26.6 ± 1.6 µM		xxx	< 8 µg/mL		< 8 µg/mL	significant inhibitory activity	
CCCCCCCCCCCCCCCCOc1ccc(NC(=O)c2c(Cl)c(Cl)c(Cl)c(Cl)c2C(=O)O)cc1 [Compound 290]	0.6 ± 0.06 µM		xxx	0.4 ± 0.06 µM	xxx	0.5 ± 0.05 µM	xxx						
